Values of other authors, collected in patent publication US20230349886A1, “SYSTEMS AND METHODS FOR PREDICTING CARDIOTOXICITY OF MOLECULAR PARAMETERS OF A COMPOUND BASED ON MACHINE LEARNING ALGORITHMS” (UTI Limited Partnership, priority 2015, published 2023).
Like-named read-outs stand apart in the source and are kept apart here.

How the values were obtained:
[1] = target: hERG (Homo sapiens, UniProt Q12809); for HERG maxInhib: test concentration or dose not given here
[2] = target: Cav1.2 (Homo sapiens, UniProt Q13936); for CAV1.2 max inhib: test concentration or dose not given here
Cav1.2, sequence (Q13936 1-2138 isoform Q13936-12): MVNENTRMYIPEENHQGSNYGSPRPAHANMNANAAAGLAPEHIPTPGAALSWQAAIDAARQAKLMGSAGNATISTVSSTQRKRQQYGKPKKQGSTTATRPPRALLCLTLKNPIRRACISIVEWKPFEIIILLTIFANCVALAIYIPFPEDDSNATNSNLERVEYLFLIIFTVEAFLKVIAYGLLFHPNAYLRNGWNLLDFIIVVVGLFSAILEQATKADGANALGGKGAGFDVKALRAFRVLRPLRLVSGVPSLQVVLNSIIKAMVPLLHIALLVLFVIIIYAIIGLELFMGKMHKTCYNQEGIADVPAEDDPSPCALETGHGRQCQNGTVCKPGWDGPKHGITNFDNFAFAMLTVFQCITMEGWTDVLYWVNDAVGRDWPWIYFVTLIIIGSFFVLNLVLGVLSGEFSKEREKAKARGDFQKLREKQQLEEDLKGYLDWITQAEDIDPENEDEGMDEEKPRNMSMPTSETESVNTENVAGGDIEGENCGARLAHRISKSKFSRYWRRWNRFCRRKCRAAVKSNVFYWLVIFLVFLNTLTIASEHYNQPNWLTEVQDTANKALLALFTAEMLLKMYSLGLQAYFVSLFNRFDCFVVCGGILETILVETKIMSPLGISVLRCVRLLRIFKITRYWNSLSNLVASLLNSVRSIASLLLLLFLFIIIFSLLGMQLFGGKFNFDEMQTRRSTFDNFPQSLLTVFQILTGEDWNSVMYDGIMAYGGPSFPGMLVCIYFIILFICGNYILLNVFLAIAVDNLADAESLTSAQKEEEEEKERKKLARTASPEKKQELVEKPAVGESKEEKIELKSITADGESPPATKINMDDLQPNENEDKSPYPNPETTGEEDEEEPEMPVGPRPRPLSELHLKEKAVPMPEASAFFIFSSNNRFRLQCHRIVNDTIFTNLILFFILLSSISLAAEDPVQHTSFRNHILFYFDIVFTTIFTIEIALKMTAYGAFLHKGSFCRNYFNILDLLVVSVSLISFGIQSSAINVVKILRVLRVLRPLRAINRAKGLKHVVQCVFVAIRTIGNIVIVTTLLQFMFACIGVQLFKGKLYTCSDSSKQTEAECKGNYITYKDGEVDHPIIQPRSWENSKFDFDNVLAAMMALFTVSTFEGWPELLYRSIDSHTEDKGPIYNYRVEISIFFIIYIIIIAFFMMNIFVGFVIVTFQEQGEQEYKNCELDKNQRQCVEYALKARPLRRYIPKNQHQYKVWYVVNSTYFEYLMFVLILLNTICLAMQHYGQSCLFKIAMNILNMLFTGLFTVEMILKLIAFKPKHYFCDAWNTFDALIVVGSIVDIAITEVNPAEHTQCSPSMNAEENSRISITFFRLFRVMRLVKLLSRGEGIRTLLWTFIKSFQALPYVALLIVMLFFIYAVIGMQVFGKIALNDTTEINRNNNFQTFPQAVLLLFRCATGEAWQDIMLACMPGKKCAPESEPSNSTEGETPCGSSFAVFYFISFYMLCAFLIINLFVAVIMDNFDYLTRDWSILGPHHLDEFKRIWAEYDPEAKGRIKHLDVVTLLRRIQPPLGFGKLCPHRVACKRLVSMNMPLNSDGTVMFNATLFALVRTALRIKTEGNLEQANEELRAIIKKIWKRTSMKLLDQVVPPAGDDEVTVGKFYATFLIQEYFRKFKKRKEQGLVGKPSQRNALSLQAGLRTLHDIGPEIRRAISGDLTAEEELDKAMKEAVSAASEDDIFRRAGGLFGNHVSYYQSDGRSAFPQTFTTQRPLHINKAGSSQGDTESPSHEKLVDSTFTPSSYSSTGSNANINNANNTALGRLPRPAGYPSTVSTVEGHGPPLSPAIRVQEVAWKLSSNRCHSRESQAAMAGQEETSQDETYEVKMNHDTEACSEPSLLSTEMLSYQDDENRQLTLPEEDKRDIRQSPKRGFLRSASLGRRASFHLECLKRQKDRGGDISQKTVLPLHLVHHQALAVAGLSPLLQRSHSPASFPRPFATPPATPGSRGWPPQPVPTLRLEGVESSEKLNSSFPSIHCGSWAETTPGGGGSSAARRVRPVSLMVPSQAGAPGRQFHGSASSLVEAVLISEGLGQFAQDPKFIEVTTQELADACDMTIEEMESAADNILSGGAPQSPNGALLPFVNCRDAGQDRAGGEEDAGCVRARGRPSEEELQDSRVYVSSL
Cav1.2, sequence (Q08289 whole entry partner): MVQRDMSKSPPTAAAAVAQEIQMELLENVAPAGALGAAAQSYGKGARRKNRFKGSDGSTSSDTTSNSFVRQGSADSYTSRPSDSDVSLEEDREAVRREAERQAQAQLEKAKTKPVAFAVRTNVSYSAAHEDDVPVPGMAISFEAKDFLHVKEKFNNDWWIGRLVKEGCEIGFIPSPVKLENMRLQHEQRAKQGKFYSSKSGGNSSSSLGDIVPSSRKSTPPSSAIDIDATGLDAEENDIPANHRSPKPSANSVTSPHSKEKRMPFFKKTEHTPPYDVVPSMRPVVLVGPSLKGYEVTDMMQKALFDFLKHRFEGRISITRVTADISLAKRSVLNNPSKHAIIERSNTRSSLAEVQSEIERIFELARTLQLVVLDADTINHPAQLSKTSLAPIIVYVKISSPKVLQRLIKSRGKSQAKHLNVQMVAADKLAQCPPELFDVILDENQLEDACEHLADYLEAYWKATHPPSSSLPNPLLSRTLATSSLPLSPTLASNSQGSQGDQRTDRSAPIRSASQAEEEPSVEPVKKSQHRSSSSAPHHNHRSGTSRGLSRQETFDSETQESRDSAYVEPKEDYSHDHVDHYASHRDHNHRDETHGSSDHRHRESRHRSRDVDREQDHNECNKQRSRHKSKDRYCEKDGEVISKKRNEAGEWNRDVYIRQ
Cav1.2, sequence (P54289 25-946 partner limits assumed): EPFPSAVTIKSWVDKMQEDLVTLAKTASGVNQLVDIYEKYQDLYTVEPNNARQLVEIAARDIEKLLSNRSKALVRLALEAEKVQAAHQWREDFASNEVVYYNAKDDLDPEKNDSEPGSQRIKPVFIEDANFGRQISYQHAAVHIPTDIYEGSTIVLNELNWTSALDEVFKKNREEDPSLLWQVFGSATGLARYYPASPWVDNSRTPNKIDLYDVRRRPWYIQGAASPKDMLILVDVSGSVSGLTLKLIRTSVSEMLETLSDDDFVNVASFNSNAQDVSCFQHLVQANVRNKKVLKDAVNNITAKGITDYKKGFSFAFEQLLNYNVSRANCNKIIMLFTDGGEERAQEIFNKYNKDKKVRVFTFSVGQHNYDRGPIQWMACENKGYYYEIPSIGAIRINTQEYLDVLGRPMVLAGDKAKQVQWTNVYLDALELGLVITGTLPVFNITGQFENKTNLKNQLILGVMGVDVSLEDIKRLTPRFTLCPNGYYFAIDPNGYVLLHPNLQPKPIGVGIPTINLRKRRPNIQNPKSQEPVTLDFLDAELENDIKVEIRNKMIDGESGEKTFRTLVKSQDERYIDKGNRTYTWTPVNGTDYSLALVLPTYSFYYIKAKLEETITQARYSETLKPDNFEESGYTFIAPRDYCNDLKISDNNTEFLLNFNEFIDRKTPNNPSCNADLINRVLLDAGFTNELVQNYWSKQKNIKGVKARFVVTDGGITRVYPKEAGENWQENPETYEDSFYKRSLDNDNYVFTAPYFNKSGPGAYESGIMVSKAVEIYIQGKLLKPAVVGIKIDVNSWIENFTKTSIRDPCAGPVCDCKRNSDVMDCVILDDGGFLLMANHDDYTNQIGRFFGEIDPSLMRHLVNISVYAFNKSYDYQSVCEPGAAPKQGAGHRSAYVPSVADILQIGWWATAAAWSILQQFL
Cav1.2, sequence (P54289 947-1103 partner limits assumed): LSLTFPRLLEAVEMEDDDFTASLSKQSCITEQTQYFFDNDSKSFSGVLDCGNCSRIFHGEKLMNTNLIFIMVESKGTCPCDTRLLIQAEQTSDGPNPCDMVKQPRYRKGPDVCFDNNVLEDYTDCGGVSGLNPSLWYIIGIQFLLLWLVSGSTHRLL

[3] = target: Nav1.5 (Homo sapiens, UniProt Q14524); conditions: Brown dataset; for IC50: read-out: NAV1.5 IC50; for NAV1.5 max inhib: test concentration or dose not given here
[4] = Brown dataset; flag given as 1 or 0
[5] = Table 11, calculated from HERG-IC50 of the Kramer et al. 2013 data
[6] = read-out: HERG IC50, Brown dataset
[7] = read-out: CAV1.2 IC50, Brown dataset

hERG, sequence (Q12809 whole entry): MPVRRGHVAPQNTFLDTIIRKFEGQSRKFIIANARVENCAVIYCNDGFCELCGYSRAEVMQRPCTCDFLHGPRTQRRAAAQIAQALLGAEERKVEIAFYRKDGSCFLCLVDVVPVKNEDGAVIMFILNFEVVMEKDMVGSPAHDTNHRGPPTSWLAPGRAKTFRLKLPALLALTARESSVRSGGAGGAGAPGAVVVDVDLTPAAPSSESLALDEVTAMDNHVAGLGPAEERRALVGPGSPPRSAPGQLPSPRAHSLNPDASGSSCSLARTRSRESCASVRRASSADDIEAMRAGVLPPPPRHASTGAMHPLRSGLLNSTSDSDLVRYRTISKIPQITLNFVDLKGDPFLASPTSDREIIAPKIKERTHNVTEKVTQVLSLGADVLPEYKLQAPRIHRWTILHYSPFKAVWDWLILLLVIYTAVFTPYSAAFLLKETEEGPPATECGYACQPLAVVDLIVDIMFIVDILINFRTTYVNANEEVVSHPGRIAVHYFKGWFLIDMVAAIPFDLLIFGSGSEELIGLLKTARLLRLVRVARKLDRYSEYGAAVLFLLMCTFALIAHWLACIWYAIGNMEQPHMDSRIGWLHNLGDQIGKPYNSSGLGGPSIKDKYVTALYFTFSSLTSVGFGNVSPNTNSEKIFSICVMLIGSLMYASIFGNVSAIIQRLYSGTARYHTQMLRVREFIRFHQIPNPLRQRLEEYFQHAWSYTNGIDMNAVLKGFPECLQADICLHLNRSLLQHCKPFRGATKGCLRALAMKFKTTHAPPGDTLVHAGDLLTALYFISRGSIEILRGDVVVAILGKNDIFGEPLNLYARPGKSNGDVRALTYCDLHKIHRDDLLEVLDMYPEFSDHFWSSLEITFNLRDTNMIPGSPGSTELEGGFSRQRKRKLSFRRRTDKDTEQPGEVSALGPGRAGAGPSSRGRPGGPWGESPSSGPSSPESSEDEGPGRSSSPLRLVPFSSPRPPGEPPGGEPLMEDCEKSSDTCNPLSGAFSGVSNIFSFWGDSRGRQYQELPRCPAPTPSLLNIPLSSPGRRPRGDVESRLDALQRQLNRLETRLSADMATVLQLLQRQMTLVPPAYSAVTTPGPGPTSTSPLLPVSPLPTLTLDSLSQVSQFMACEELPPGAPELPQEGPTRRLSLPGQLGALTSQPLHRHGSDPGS

Compound | HERG maxInhib ([1]; Brown dataset) | CAV1.2 max inhib ([2]; Brown dataset) | IC50 [2, 7] | NAV1.5 max inhib [3] | IC50 [3] | Ris (TdP risk flag) [4] | other results
CC(=O)NC[C@H]1CN(c2ccc(N3CCOCC3)c(F)c2)C(=O)O1 [linezolid] | 19.3 | 70.3 | 105 µM | 9.6 | 2640 µM | 0 | pIC50 [1, 5]: 2.94; IC50 [1, 6]: 1150 µM
O=C(CCCN1CC=C(n2c(=O)[nH]c3ccccc32)CC1)c1ccc(F)cc1 [droperidol] |  | 83.4 | 7.6 µM | 59 | 22.7 µM | 1 | 
CC(C)(C)c1ccc(C(O)CCCN2CCC(C(O)(c3ccccc3)c3ccccc3)CC2)cc1 (centres unmarked) [terfenadine] |  | 98 |  | 99 |  |  | 
CC(C)(C)NC(=O)[C@@H]1C[C@@H]2CCCC[C@@H]2CN1C[C@@H](O)[C@H](Cc1ccccc1)NC(=O)[C@H](CC(N)=O)NC(=O)c1ccc2ccccc2n1 [saquinavir] | 73.1 |  |  |  |  |  | pIC50 [1, 5]: 4.772; IC50 [1, 6]: 16.9 µM
N[C@@H](CC(=O)N1CCn2c(nnc2C(F)(F)F)C1)Cc1cc(F)c(F)cc1F [sitagliptin] | 35.6 | 35.8 | 147 µM | 18.3 | 1220 µM | 0 | 
CN(C)CCCN1c2ccccc2Sc2ccc(Cl)cc21 [chlorprom ne] | 96.7 |  |  |  |  | 1 | IC50 [1, 6]: 1.5 µM
CCCCN(CCCC)CCC(O)c1cc2c(Cl)cc(Cl)cc2c2cc(C(F)(F)F)ccc12 (centres unmarked) [halofantrin] |  |  |  | 8.3 | 331 µM |  | HERG maxInhib [1]: 77.9; HERG pIC50 [1]: 6.4202 403; IC50 [1]: 0.38 µM
cilostazol | 65.9 | 24.6 | 91.2 µM | 22.9 | 93.7 µM | 1 | pIC50 [1, 5]: 4.86; IC50 [1, 6]: 13.8 µM
CC(CC(c1ccccc1)c1ccccc1)NC(C)(C)C (centres unmarked) [terodiline] |  | 95.4 | 4.8 µM | 100 | 7.4 µM | 1 | 
O=C1NCCN1CCN1CCC(c2cn(-c3ccc(F)cc3)c3ccc(Cl)cc23)CC1 [sertindole] |  | 91.5 | 6.3 µM | 95.5 | 6.9 µM | 1 | 
CCCC(C)C1(CC)C(=O)NC(=O)NC1=O (centres unmarked) [pentobarbital] |  | 82.1 | 299 µM | 9 | 2690 µM | 0 | HERG maxInhib [1]: 39.5; HERG pIC50 [1]: 2.843 135; IC50 [1]: 1430 µM; pIC50 [1]: 2.843
COCC(=O)O[C@]1(CCN(C)CCCc2nc3ccccc3[nH]2)CCc2cc(F)ccc2[C@@H]1C(C)C [mibefradil] |  | 92.1 |  | 100 |  | 0 | 
CCC(=O)C(CC(C)N(C)C)(c1ccccc1)c1ccccc1 (centres unmarked) [methadone] | 91.6 | 96.9 |  | 100 | 31.8 µM | 1 | pIC50 [1, 5]: 5.456; IC50 [1, 6]: 3.5 µM
Cc1cn([C@@H]2C[C@@H](O)[C@H](CO)O2)c(=O)[nH]c1=O [telbivudine] | 17.4 | 22.1 | 714 µM | 15.1 | 1100 µM |  | pIC50 [1, 5]: 3.374; IC50 [1, 6]: 423 µM
C[C@@H](c1ncncc1F)[C@](O)(Cn1cncn1)c1ccc(F)cc1F [voriconazole] |  | 40.9 | 414 µM | 15.8 | 1550 µM |  | 
C=C[C@H]1C[N@@]2CC[C@H]1C[C@@H]2[C@@H](O)c1ccnc2ccc(OC)cc12 [quinidine] |  | 58 |  | 97.5 |  | 1 | 
COc1cc(N)c(Cl)cc1C(=O)NC1CCN(CCCOc2ccc(F)cc2)CC1OC (centres unmarked) [cisapride] |  | 42.8 | 11.8 µM | 22.9 | 337 µM | 1 | 

Compound | HERG maxInhib ([1]; Brown dataset) | CAV1.2 max inhib ([2]; Brown dataset) | IC50 [2, 7] | NAV1.5 max inhib [3] | IC50 [3] | Ris (TdP risk flag) [4] | other results
CC(C)N(CCC(C(N)=O)(c1ccccc1)c1ccccn1)C(C)C (centres unmarked) [disopyrami] |  |  |  | 68.9 | 168 µM |  | CAV1.2 max inhib [2]: 22.1; CAV1.2 pIC50 [2]: 2.9843 902; IC50 [2]: 1040 µM
CCN(CC)CCNC(=O)c1ccc(N)cc1 [procainamide] | 50.7 |  |  |  |  |  | 
Cc1cn(-c2cc(NC(=O)c3ccc(C)c(Nc4nccc(-c5cccnc5)n4)c3)cc(C(F)(F)F)c2)cn1 [nilotinib] |  | 32.4 |  |  |  |  | 
Cc1nc2n(c(=O)c1CCN1CCC(c3noc4cc(F)ccc34)CC1)CCCC2O (centres unmarked) [paliperidone] |  | 33.1 | 194 µM | 51.2 | 109 µM | 1 | 
CCN1CCN(C(=O)N[C@@H](C(=O)N[C@@H]2C(=O)N3[C@@H]2SC(C)(C)[C@@H]3C(=O)O)c2ccccc2)C(=O)C1=O [piperacillin] |  | 15.9 | 1230 µM | 9.7 | 2430 µM |  | 
CN(CCOc1ccc(NS(C)(=O)=O)cc1)CCc1ccc(NS(C)(=O)=O)cc1 [dofetilide] |  | 54.2 |  |  |  | 1 | 
CN1C(=O)CN=C(c2ccccc2)c2cc(Cl)ccc21 [diazepam] |  |  |  |  |  | 0 | 
CSc1ccc2c(c1)N(CCC1CCCCN1C)c1ccccc1S2 (centres unmarked) [thioridazine] |  | 82.9 |  | 99.3 |  |  | 
CN1CCN(C2=Nc3cc(Cl)ccc3Nc3ccccc32)CC1 [clozapine] | 97.7 | 73.5 |  | 91.8 | 15.1 µM |  | 
COc1c(N2C[C@@H]3CCCN[C@@H]3C2)c(F)cc2c(=O)c(C(=O)O)cn(C3CC3)c12 [moxifloxacin] | 75.9 | 53.7 |  | 17.4 |  |  | 
O=C(CCCN1CCC(O)(c2ccc(Cl)cc2)CC1)c1ccc(F)cc1 [haloperidol] |  | 94 |  | 96.6 |  |  | HERG maxInhib [1]: 89.2
CCN(CC)CCNC(=O)c1c(C)[nH]c(/C=C2\C(=O)Nc3ccc(F)cc32)c1C [sunitinib] |  | 61.5 | 33.4 µM | 66.4 |  | 1 | 
O=c1[nH]c2ccccc2n1C1CCN(CCCC(c2ccc(F)cc2)c2ccc(F)cc2)CC1 [pimozide] |  | 88.1 |  |  |  | 1 | HERG maxInhib [1]: 91.3
O=C(O[C@H]1CN2CCC1CC2)N1CCc2ccccc2[C@@H]1c1ccccc1 [solifenacin] |  | 96.4 |  | 100 |  |  | 
CCCCN(CCCC)CCC(O)c1cc2c(Cl)cc(Cl)cc2c2cc(C(F)(F)F)ccc12 (centres unmarked) [halofantrine] |  |  |  |  |  |  | pIC50 [1]: 6.42
CCOC(=O)N1CCC(=C2c3ccc(Cl)cc3CCc3cccnc32)CC1 [loratadine] |  |  |  |  |  | 0 | 
CCCCc1oc2ccccc2c1C(=O)c1cc(I)c(OCCN(CC)CC)c(I)c1 [amiodaron] |  |  |  |  |  | 1 | 
